Patent US6630431B2, “Nail polish lacquer remover” (Board of Trustees of Michigan State University, priority 2001, dated 2003)

How the values were obtained:
[1] = Vapor pressure; assay type: physicochemical; details: @ 20° C.
Procedure: The vapor pressure of ethyl lactate is 1.6 mmHg @ 20° C. and for diethyl succinate is 0.2 mmHg @ 20° C. These are very favorable for a nail polish removing lacquer.

[2] = animals; cited from earlier work

| Compound | vapor pressure [1] [mmHg] | LD50 data [2] |
| --- | --- | --- |
| CCOC(=O)C(C)O (stereo not shown) [ethyl lactate] | 1.6 | very large doses are required to produce toxic results |
| CCOC(=O)CCC(=O)OCC [diethyl succinate] | 0.2 | very large doses are required to produce toxic results |
